Test results from a melting point compilation (Tetko et al.; mined from patent text by program, amines drawn as free bases though some values may be those of a salt).

| SMILES | melting point |
| --- | --- |
| CC(c1ccc(-c2ccccc2)c(F)c1)c1cc(CO)no1 (configuration not stated) | 127 to 128 °C |
| CN(CCOc1ccc(C=C2SC(=O)NC2=O)cc1)c1nccs1 | 212 °C |
| CC(N1C(=O)C(=O)N(c2ccc(Cl)cc2)C1=S)C(C)(C)C (configuration not stated) | 199 to 200 °C |
| CC(C)CC1(CCCCCl)C(=O)Nc2ccccc21 (configuration not stated) | 124 to 125 °C |
| CC(C)(C)[Si](OCCCc1ccc(OCC(=O)O)cc1)(c1ccccc1)c1ccccc1 | 87 to 88 °C |
| CC(C)NCC(O)COc1ccc(-c2nc(C(F)(F)F)c[nH]2)cc1 (configuration not stated) | 173 to 174 °C |
| CC1(C(F)(F)F)C=C(C(=O)NCCC#N)c2cc([N+](=O)[O-])ccc2O1 (configuration not stated) | 191 to 193 °C |
| CC(C)OC(=O)C(C(=O)OC(C)C)=C1SC2C(S1)N(C(C)C)CCN2C(C)C (configuration not stated) | 82 to 84 °C |
| COc1cc2c(cc1OC(=O)C=Cc1ccccc1)C1Cc3c(Cl)cc(OC)c(OC(=O)C=Cc4ccccc4)c3CN1CC2 (configuration not stated) | 240 to 242 °C |
| COc1ccc(C(=O)Nc2ccc3ccc(C#N)nc3n2)cc1 | 283 °C |
| COc1cc(Cl)c2c(c1)C=C(C(=O)O)C(C(F)(F)F)O2 (configuration not stated) | 204 to 207 °C |
| CCN1CCC(=NO)c2ccn(CCCCN3CCC(C(=O)c4ccc(F)cc4)CC3)c2C1=O | 158 to 160 °C |
| CN1C(=O)N(C[C@@H](CCS(=O)(=O)c2ccc(Oc3ccc(F)cc3)cc2)N(O)C=O)C(=O)C1(C)C | 105 °C |
| Cc1cc(C(=O)Nc2ccccc2C)n(C)n1 | 158 to 160 °C |
| COc1ccc(N2CCCC2=O)cc1OC1CCCC1 | 130 to 131 °C |
| COc1ccc(NC(=O)c2ccccc2-c2cccc(OC)c2)cc1 | 107 to 109 °C |
| CN(SC1(C)CCCC1=O)C(=O)ON=C1SC(C)(C)C(=O)N1C (configuration not stated) | 119 to 121 °C |
| CN1CCN(c2ccc(Nc3ncc4c(n3)S/C(=C/c3ccc([N+](=O)[O-])cc3)C(=O)N4)cc2)CC1 | 276 to 279 °C |
| CCN(O)Cc1nnc2n1-c1ccc(Cl)cc1C(c1ccccc1)=NC2 | 154 to 157 °C |
| O=C(NCCCn1ccnc1)Nc1ccc(Cl)cc1 | 123 to 125 °C |
| Cc1ccc2c(c1)C(=O)C(CC=O)C2 (racemic) | 53 to 54 °C |
| CCCCCCCCCCCCC(O)CC#CCCCC(=O)O (configuration not stated) | 80.5 to 81 °C |
| COc1nc(C)cnc1NS(=O)(=O)c1cccnc1-c1ccc(CC(C)CO)cc1 (configuration not stated) | 118 to 119 °C |
| O=c1ccn(-c2cccc(C(F)(F)F)c2)nc1-c1ccnn1-c1ccc(F)cc1 | 130 to 131 °C |
| Nc1nc(OCc2ccccc2)nc2c1ncn2C1OC(CO)C(O)C1O (configuration not stated) | 178 to 179 °C |
| CC(C)(NC(=O)CCc1nccn1Cc1ccccc1)c1ccc(Cl)cc1 | 128 to 129 °C |

| SMILES | melting point |
| --- | --- |
| C#CCn1ccc(CO)c1C#N | 65 °C |
| CCC(CC)Oc1cc(C)nc(Oc2c(C)cc(C)cc2C)c1[N+](=O)[O-] | 106 to 109 °C |
| CCCC1=C(c2ccc(F)c(F)c2)C(=NO)CC1 | 136 to 137 °C |
| CCOC(=O)C1=C(C)NC(c2ccccc2)=NC1c1ccccc1[N+](=O)[O-] (configuration not stated) | 102 to 105 °C |
| Nc1sc2c(c1C(=O)c1ccccn1)CCCC2 | 191 to 193 °C |
| CCOC(=O)C1=C(C)NC(N)=C(C(=O)OCC)C1c1ccccc1[N+](=O)[O-] (configuration not stated) | 159 °C |
| CN(C)CC#Cc1cc(CN2CCOCC2)cc2c(=O)c(C(=O)NCc3ccc(Cl)cc3)cn(C)c12 | 154 to 157 °C |
| CCOC(=O)NN=Cc1cn(-c2ccccc2)nc1-c1ccc([N+](=O)[O-])o1 | 200 to 201 °C |
| O=C1CCN(C(=O)C(Cc2ccccc2)NC(=O)c2cc3cc(Cl)ccc3[nH]2)CC1 (configuration not stated) | 258 to 261 °C |
| CCCCCCCCC(=O)OCc1c(Cl)ccc2cc(Cl)cnc12 | 92 °C |
| CC(=O)NC[C@H]1CN(c2ccc3c(c2)CCC(C)N3C(=O)OCc2ccccc2)C(=O)O1 (some centres not stated) | 126 to 129 °C |
| Clc1cccc(CNc2ncnc3nc[nH]c23)c1 | 252 °C |
| CC(=O)C(Cl)=NNc1ccccc1 | 132 to 134 °C |
| CCc1cc(C(=O)O)ccc1O | 134 to 136 °C |
| O=c1ccn(-c2cccc(C(F)(F)F)c2)nc1-c1ccoc1-c1ccccc1 | 159 to 163 °C |
| Cc1nc2ccc(Cl)nn2c1Br | 146 to 148 °C |
| Cc1sc(C#N)c2c1C(=O)CC(C)(C)C2 | 73 to 75 °C |
| Cc1ccc2nc(N3CCN(c4ncccc4C(F)(F)F)CC3)[nH]c2c1 | 216 to 217 °C |
| CC1=Nc2c(C)nn(C)c2C2=NC(C)(C)CN12 | 148 to 150 °C |
| NCCNC(=O)Nc1ccccc1C(=O)NCC1CCN(C(c2ccccc2)c2ccccc2)CC1 | 101 to 103 °C |
| Cc1ccccc1Cc1nc2cc(Cl)c(S(N)(=O)=O)cc2[nH]1 | 226 to 230 °C |
| CCCCC1(c2ccc(-c3ccccc3)cc2)CC(O)=C(SCCc2ccccc2)C(=O)O1 (configuration not stated) | 100 to 104 °C |
| CCN1c2ncc(Cc3cccc(O)c3)cc2C(=O)N(C)c2ccc(Cl)nc21 | 219 to 220 °C |
| CN(CC1CCN(c2ccc(OC(F)(F)F)cc2)CC1)c1ccc(OC[C@@]2(C)Cn3cc([N+](=O)[O-])nc3O2)cc1 | 172 to 175 °C |
| CCCCCCN(Cc1ccc2ccccc2c1)c1c(N[C@@H](Cc2ccccc2)C(=O)O)c(=O)c1=O | 62 to 70 °C |
| N#Cc1ccc(Nn2cnnc2)cc1 | 200 to 204 °C |

| SMILES | melting point |
| --- | --- |
| CCCCCCCCCCCCc1c[nH]c(C(=O)OC)c1 | 68 to 69 °C |
| CC(C)Cn1cnc2c(N)nc3c(c21)CCNC3 | 220 to 223 °C |
| CN(C(=O)c1ccc2nonc2c1)C1CCC(F)(F)CC1 | 137 to 138 °C |
| CCN1CC(NC(=O)c2ccc(F)cc2)CN1CC | 114 to 116 °C |
| O=C1Nc2ccccc2N(C(=O)CCN2CCCC2)c2ccc(Cl)cc21 | 167 to 169 °C |
| Cn1cc(Br)cc(Nc2ccccn2)c1=O | 153 to 154 °C |
| COc1cc(Oc2ccc(S(C)(=O)=O)cn2)cc2cc(C3=NCC(CC(C)(C)O)S3)[nH]c12 (configuration not stated) | 171 to 173 °C |
| CC(=O)NCC1CN(c2ccc(N3CCN(c4nc5ccccc5o4)CC3)c(F)c2)C(=O)O1 (configuration not stated) | 223 to 224 °C |
| COc1ccc(N2CC(=O)c3ccccc3S2)cc1O | 228 to 232 °C |
| COC(=O)c1ccccc1/C=C/CO | 75 to 80 °C |
| Cc1cc(C#N)sc1-c1ccc2c(c1)C(C)(C)OC(=S)N2 | 211 to 212 °C |
| CCCCc1c(Cl)nc(N=CN(C)C)nc1Cl | 66 to 68 °C |
| COc1cc(CCc2cnc(N)nc2N)cc(OC)c1OC | 155 to 157 °C |
| O=C(NN=Cc1cccc(C(F)(F)F)c1Cl)c1ccc(O)cc1 | 262 °C |
| O=C(O)C1CCCN1S(=O)(=O)c1ccc(F)cc1 (configuration not stated) | 145 to 148 °C |
| NS(=O)(=O)c1ccc(-c2cn(-c3nc(-c4ccc(C(F)(F)F)cc4)cc(C(F)(F)F)n3)cn2)s1 | 281 °C |
| Fc1cc(F)c(F)c(N=C2NCCN2)c1F | 147 to 148 °C |
| COC(=O)c1c(C)nc(-c2ccccc2)nc1-c1cccc(OC(F)F)c1 | 62 to 63 °C |
| CCn1ncc2nc(C(N)=O)c(-c3ccccc3)nc21 | 189 to 190 °C |
| CS(=O)c1ccc(OCc2ccccc2)c(C=O)c1 (configuration not stated) | 103 to 104 °C |
| O=C(O)CCCCNS(=O)(=O)c1ccc(N2CCCCC2)cc1 | 115 to 120 °C |
| c1ccc(Cc2cccc3c2[nH]c2ccccc23)cc1 | 117 °C |
| N#CC1=C(C#N)NC(c2ccccc2)C(O)=N1 (configuration not stated) | 222 to 224 °C |
| C=CCN[C@H]1CC(C(=O)OCC)=C[C@@H](OC(CC)CC)[C@@H]1NC(C)=O | 100 to 104 °C |
| Cc1nc(C)c(Cl)c(NCc2nccc(OCCCCN3CCN(Cc4ccncc4)CC3)c2C)n1 | 157 to 158 °C |
| COC(=O)c1cccc(CN2CCc3cc(O)c(OC)cc3C2)c1 | 156 to 158 °C |

| SMILES | melting point |
| --- | --- |
| O=c1[nH]c(-c2ccccc2)c(-c2ccccc2S(=O)(=O)NCCCBr)o1 | 232 to 235 °C |
| COC(=O)[C@@H]1C[C@@H](O)CN1S(=O)(=O)c1ccc(Cl)c(COc2cccc3c(C)cc(C)nc23)c1Cl | 100 °C |
| Cc1cccc(-c2c(=O)[nH]c3cc(Cl)c(Cl)cc3[n+]2[O-])c1 | 260 to 262 °C |
| COc1cc(Br)c(OC)c(C(N)=O)c1 | 222 to 225 °C |
| N#CC(N)C=Cc1ccccc1 (configuration not stated) | 79 °C |
| CCS(=O)(=O)Nc1cc(-n2nnn(CCCF)c2=O)c(F)cc1Cl | 84 to 85 °C |
| CCCCCCCCCCCCCCCCSCC(CNS(=O)(=O)CCCCl)COC (configuration not stated) | 41.5 to 43 °C |
| CCn1cc(C(=O)NC2CCCc3ccccc32)c(=O)c2cnc(N3CCCC3)nc21 (configuration not stated) | 284 to 286 °C |
| COc1ccc(-c2nc3ccc(OC(F)(F)F)cc3[nH]2)cc1OCc1ccccc1 | 226 to 228 °C |
| COc1cccc2c1CC(=O)CO2 | 53 to 54 °C |
| CC(CCCc1ccccc1)Oc1cc(O)c2c(c1)OC(C)(C)CC2=O (configuration not stated) | 83 to 84 °C |
| CC1C(=O)N(c2ccccc2)C(=S)N1c1ccc(Oc2ccccc2)cc1 (configuration not stated) | 141 °C |
| CN(C)CCNc1ccc(NCCN(C)C)c2c1C(=O)c1ccc(O)c(O)c1C2=O | 133 to 135 °C |
| CCCCOc1c(CN2C(=O)c3ccccc3C2=O)n(CC2CC2)c(=O)c2ccc(Br)cc12 | 156 to 157 °C |
| CC(=O)OCC1OC(c2cnc(Cl)nc2Cl)C(OC(C)=O)C1OC(C)=O (configuration not stated) | 75 to 78 °C |
| Cc1c(Cl)nnc(Cl)c1Cl | 67.5 to 70 °C |
| FC(F)=Cc1nn(-c2c(Cl)cc(C(F)(F)F)cc2Cl)cc1C1CC1(Br)Br (configuration not stated) | 71 to 73 °C |
| COc1cc(OC)c(C(=O)CBr)cc1C(=O)O | 236 °C |
| COc1cc(-c2nc(N3CCNC(C)C3)c3c(C)c(C#N)sc3n2)cc(OC)c1OC (configuration not stated) | 213 to 215 °C |
| CC(=O)OC1CSC(Oc2cccnc2-c2ccncc2)C(OC(C)=O)C1OC(C)=O (configuration not stated) | 161 °C |
| CN(C)C(=O)c1ccc(F)c2c1CC(N(CCCc1c[nH]c3ccc(F)cc13)C1CCC1)CO2 (configuration not stated) | 126 °C |
| CNC(=O)[C@@H]1C[C@@H](OCc2ccccc2)CN1S(=O)(=O)c1ccc(Cl)c(COc2cccc3c(-n4ccnc4)cc(C)nc23)c1Cl | 100 °C |
| CN1C(=O)[C@H](NC(=O)c2cc3cc(Cl)ccc3[nH]2)N=C(c2ccccc2)c2ccccc21 | 160 to 164 °C |
| C/C(=C(\C#N)C(N)=S)N1CCCN(c2ccc(F)c(Cl)c2)CC1 | 148 to 150 °C |
